Source: patent US9157077B2, “Aminopyrimidine kinase inhibitors” (Jasco Pharmaceuticals, LLC, priority 2009, dated 2015)
Like-named read-outs stand apart in the source and are kept apart here.

Legend:
[1] = Hepatic microsomal stability, human; format: in vitro ADME
Description: (§1) Hepatic microsomal assays were performed with 4981, 4985, 4991 and 4999 in human and rat (Sprague-Dawley). Protein concentrations of 0.4 (human) and 0.2 mg/mL (rat) with an NADPH regenerating cofactor system (2.6 mM NADP+, 6.6 mM glucose-6-phosphate, 0.8 U/mL glucose-6-phosphate dehydrogenase, and 6.6 mM magnesium chloride) were used. A 100 μM 20% DMSO/80% acetonitrile working stock of each of the compounds was diluted 100 fold resulting in 1 μM compound/1% final organic reaction concentrations. Time points were removed at 0 and 60 minutes. At each time point, 100 μL of the incubation suspension was added to 200 μL of acetonitrile containing internal standard (tolbutamide), followed by centrifugation at 3,220 rcf for 10 minutes. Two hundred (200)μL of the resulting supernatants were removed, dried under nitrogen and reconstituted in 100 μL of 2 mM ammonium acetate, 0.1% formic acid in 50% methanol prior to analysis by LC/MS/MS. Testosterone and dexamethasone were used as reference compounds.

[2] = Hepatic microsomal stability, rat; format: in vitro ADME, rat (Sprague-Dawley)
Description: as §1

[3] = PAMPA, 5 h, 10 μM, pH 7.4
Description: The target concentration in the assay was 10 μM, prepared by diluting (1000-fold) the 10 mM stock solutions in DMSO into PBS, pH 7.4. The final DMSO concentration was 0.1%. The 10 μM solutions were added, 300 μL, to wells in the donor plate. The receiver plate, which contained 200 μL of PBS, pH 7.4 per well, was placed in the donor plate and the assembly was incubated for 5 hours at ambient temperature. At the end of the incubation period the plates were separated and the compound concentrations in each solution were determined by LC/MS/MS. The assay was performed in triplicate.
Where: • C0 is the initial concentration in the donor well (μM) • CD(t) is the concentration in the donor well after incubation (μM) • CA(t) is the concentration in the acceptor well after incubation (μM) • VD is the volume in the donor well (0.3 mL) • VA is the volume in the acceptor well (0.2 mL) • CE is (CD(t)VD+CA(t)VA)/(VD+VA) • A is the filter area (0.3 cm2) • t is the incubation time (18,000 s).

LNCaP cells = assay: Cell proliferation study, inhibition of LNCaP cells (MTS); format: cell-based; conditions: Homo sapiens, 72 hours, read-out: Inhibition Rate %
Description: Inhibition of LNCaP Cells
(§2) • Cells: LNCaP, ATCC Passage unknown, Mycoplasma free. • Medium: RPMI-1640 Medium (GIBCO Cat#22400121) supplemented with 10% fetal bovine serum (Hyclone Cat#SH30396.03). • Seeding: 3,000 cells/well (100 μL) into 96-well plates, incubated overnight at 37° C. in a humidified 5% CO2 atmosphere. • Treatment: Test compounds were first diluted 333-fold in the medium. Fifty microliters (50 μL) of diluted compounds were added into each well (i.e., another 3-fold dilution). The final concentration of test compounds was 10 μM. The cells were incubated for 72 hours after addition of the test compounds. • MTS: Added 20 μL of MTS solution (Promega Cat #G5430) into each well and incubated for 4 hours. • Calculation: % of inhibition+(AVE zero ctrl−AVE compound)/AVE zero ctrl*100.

MDA-MB-468 cells = assay: Cell proliferation study, inhibition of MDA-MB-468 cells (MTS); format: cell-based; conditions: Homo sapiens, 72 hours, read-out: Inhibition Rate %
Description: Inhibition of MDA-MB-468 Cells
as §2, with “MDA-MB-468 cells,” for “LNCaP,”, “2,000” for “3,000”

PC-3 cells = assay: Cell proliferation study, inhibition of PC-3 cells (MTS); format: cell-based; conditions: Homo sapiens, 72 hours, read-out: Inhibition Rate %
Description: Inhibition of PC-3 Cells:
as §2, with “PC-3 cells,” for “LNCaP,”, “DMEM” for “RPMI-1640”, “Cat#11995073)” for “Cat#22400121)”

OVCAR-3 cells = assay: Cell proliferation study, inhibition of OVCAR-3 cells (MTS); format: cell-based; conditions: Homo sapiens, 72 hours, read-out: Inhibition Rate %
Description: Inhibition of OVCAR-3 Cells
as §2, with “OVCAR-3 cells,” for “LNCaP,”, “4,” for “unknown,”, “2,000” for “3,000”

Jurkat cells = assay: Cell proliferation study, inhibition of Jurkat cells (MTS); format: cell-based; conditions: Homo sapiens, 72 hours, read-out: Inhibition Rate %
Description: Inhibition of Jurkat Cells
as §2, with “Jurkat cells,” for “LNCaP,”, “serum(Hyclone” for “serum (Hyclone”, “5,000” for “3,000”

HCT116 cells = assay: Cell proliferation study, inhibition of HCT116 cells (MTS); format: cell-based; conditions: Homo sapiens, 72 hours, read-out: Inhibition Rate %
Description: Inhibition of HCT116 Cells
• Cells: HCT116 cells, ATCC Passage unknown, Mycoplasma free. • Medium: DMEM Medium (GIBCO Cat#11995073) supplemented with 10% fetal bovine serum (Hyclone Cat#SH30396.03). • Seeding: 750 cells/well (100 μL) into 96-well plates, incubated overnight at 37° C. in a humidified 5% CO2 atmosphere. • Treatment: Test compounds were first diluted 333-fold in the medium. Fifty microliters (50 μL) of diluted compounds were added into each well (i.e., another 3-fold dilution). The final concentration of test compounds was 10 μM. The cells were incubated for 72 hours after addition of the test compounds. • MTS: Added 20 μL of MTS solution (Promega Cat #G5430) into each well and incubated for 4 hours. • Measurement: Absorbance at 490 nm using MD Spectramax Plus 384 spectrophotometer. • Calculation: % of inhibition+(AVE zero ctrl−AVE compound)/AVE zero ctrl*100.

[4] = target: T1, Enzyme (kinases of Table 30) (Homo sapiens, UniProt P78368); assay: IC50 of Compound (nM) (ATP present at Km of enzyme), Table 30; format: biochemical; conditions: CK1γ2(h), ATP present at Km of enzyme
T1 construct: IC50 of Compound, CK1γ2(h); other: CK1γ2(h), ATP present at Km of enzyme
T1 sequence (P78368 whole entry): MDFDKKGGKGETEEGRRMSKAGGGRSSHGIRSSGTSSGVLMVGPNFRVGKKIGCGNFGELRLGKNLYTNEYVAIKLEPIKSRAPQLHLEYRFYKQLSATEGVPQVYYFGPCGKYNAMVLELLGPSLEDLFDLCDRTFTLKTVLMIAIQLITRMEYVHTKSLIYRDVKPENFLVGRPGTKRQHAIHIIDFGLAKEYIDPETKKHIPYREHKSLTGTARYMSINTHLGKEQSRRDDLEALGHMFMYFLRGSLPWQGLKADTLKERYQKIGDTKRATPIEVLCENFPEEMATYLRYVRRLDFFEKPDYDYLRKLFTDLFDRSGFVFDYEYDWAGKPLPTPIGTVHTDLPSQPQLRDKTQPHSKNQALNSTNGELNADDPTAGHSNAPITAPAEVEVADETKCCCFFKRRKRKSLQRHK

[5] = target: Enzyme (kinases of Table 30) (Homo sapiens, UniProt P11309); assay: as above; format: biochemical; conditions: Pim-1(h), ATP present at Km of enzyme; read-out: IC50 of Compound, Pim-1(h)
Chain of Enzyme (kinases of Table 30) (Homo sapiens, UniProt P11309) (P11309 whole entry): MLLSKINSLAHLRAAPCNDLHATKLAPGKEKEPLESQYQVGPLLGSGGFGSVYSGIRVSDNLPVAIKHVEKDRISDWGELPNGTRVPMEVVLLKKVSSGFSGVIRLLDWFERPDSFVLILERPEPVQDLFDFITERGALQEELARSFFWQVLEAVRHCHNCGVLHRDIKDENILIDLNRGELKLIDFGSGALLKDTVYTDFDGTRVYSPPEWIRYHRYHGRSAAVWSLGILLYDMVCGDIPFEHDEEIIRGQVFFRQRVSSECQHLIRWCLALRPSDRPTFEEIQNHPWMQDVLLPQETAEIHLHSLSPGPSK

[6] = target: Enzyme (kinases of Table 30) (Homo sapiens, UniProt Q9P1W9); assay: as above; format: biochemical; conditions: Pim-2(h), ATP present at Km of enzyme; read-out: IC50 of Compound, Pim-2(h)
Chain of Enzyme (kinases of Table 30) (Homo sapiens, UniProt Q9P1W9) (Q9P1W9 whole entry): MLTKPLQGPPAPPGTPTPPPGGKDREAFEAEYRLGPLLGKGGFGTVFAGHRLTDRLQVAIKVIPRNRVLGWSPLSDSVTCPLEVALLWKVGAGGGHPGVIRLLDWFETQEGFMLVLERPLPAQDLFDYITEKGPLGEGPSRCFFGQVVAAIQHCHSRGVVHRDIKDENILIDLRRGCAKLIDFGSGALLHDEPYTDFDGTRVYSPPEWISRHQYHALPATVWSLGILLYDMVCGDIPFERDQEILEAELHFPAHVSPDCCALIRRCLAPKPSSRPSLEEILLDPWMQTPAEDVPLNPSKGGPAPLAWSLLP

[7] = target: T2, Enzyme (kinases of Table 30) (Homo sapiens, UniProt P68400); assay: as above; format: biochemical; conditions: CK2(h), ATP present at Km of enzyme
T2 construct: IC50 of Compound, CK2(h); other: CK2(h), ATP present at Km of enzyme
T2 sequence (P68400 whole entry): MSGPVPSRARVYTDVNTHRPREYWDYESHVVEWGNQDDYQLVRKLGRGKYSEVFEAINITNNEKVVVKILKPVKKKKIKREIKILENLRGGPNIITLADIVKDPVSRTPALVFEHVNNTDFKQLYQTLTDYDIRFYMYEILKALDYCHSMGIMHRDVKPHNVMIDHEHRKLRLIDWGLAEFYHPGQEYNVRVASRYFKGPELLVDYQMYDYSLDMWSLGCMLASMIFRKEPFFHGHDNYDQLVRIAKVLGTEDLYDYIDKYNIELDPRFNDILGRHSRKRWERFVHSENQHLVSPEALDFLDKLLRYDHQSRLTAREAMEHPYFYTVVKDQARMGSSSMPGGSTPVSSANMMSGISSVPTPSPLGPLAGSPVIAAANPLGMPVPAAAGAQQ

[8] = target: Enzyme (kinases of Table 30) (Homo sapiens, UniProt Q86V86); assay: as above; format: biochemical; conditions: Pim-3(h), ATP present at Km of enzyme; read-out: IC50 of Compound, Pim-3(h)
[9] = target: Enzyme (kinases of Table 29) (Homo sapiens, UniProt P78368); assay: Percent Activity of Enzyme When Treated with 300 nM of Compound (ATP present at Km of enzyme), Table 29; format: biochemical; conditions: CK1γ2(h)
Chain of Enzyme (kinases of Table 29) (Homo sapiens, UniProt P78368) (P78368 whole entry): as the sequence (P78368 whole entry) above

[10] = system: Enzyme (kinases of Table 29); assay: as above; format: biochemical
[11] = target: Enzyme (kinases of Table 30); assay: IC50 of Compound (nM) (ATP present at Km of enzyme), Table 30; format: biochemical; conditions: ATP present at Km of enzyme

## C[C@@H]1C[C@H]2[C@@H]3CCC4=CC(=O)C=C[C@]4(C)[C@@]3(F)[C@@H](O)C[C@]2(C)[C@@]1(O)C(=O)CO [Dexamethasone]
[1]; human, microsomes, 1 h, 1 μM
  % remaining after incubation, Human Microsomes: 85%
[2]; Sprague-Dawley, rat, microsomes, 1 h, 1 μM
  % remaining after incubation, Rat Microsomes: 91%
[3]
  Mass Retention R: 9%

## Nc1ccn([C@@H]2O[C@H](CO)[C@@H](O)C2(F)F)c(=O)n1 [Gemcitabine, gemcitabine]
LNCaP cells; positive control 1.2 μM
  inhibition at 1.2 µM: 14.5%
LNCaP cells; positive control 3.7 μM
  inhibition at 3.7 µM: 60.9%
LNCaP cells; positive control 11.1 μM
  inhibition at 11.1 µM: 90.2%
LNCaP cells; positive control 33.3 μM
  inhibition at 33.3 µM: 92.9%
LNCaP cells; positive control 100 μM
  inhibition at 100 µM: 90.7%
LNCaP cells; positive control 300 μM
  inhibition at 300 µM: 90.1%
MDA-MB-468 cells; positive control 1.2 μM
  inhibition at 1.2 µM: 16.4%
MDA-MB-468 cells; positive control 3.7 μM
  inhibition at 3.7 µM: 31.2%
MDA-MB-468 cells; positive control 11.1 μM
  inhibition at 11.1 µM: 80.7%
MDA-MB-468 cells; positive control 33.3 μM
  inhibition at 33.3 µM: 91.7%
MDA-MB-468 cells; positive control 100 μM
  inhibition at 100 µM: 88.8%
MDA-MB-468 cells; positive control 300 μM
  inhibition at 300 µM: 94.9%
PC-3 cells; positive control 1.2 μM
  inhibition at 1.2 µM: 6.5%
PC-3 cells; positive control 3.7 μM
  inhibition at 3.7 µM: 6.7%
PC-3 cells; positive control 11.1 μM
  inhibition at 11.1 µM: 20.9%
PC-3 cells; positive control 33.3 μM
  inhibition at 33.3 µM: 47.4%
PC-3 cells; positive control 100 μM
  inhibition at 100 µM: 55.7%
PC-3 cells; positive control 300 μM
  inhibition at 300 µM: 79.5%
OVCAR-3 cells; positive control 1.2 μM
  inhibition at 1.2 µM: 18.2%
OVCAR-3 cells; positive control 3.7 μM
  inhibition at 3.7 µM: 25%
OVCAR-3 cells; positive control 11.1 μM
  inhibition at 11.1 µM: 31.5%
OVCAR-3 cells; positive control 33.3 μM
  inhibition at 33.3 µM: 40.8%
OVCAR-3 cells; positive control 100 μM
  inhibition at 100 µM: 85.1%
OVCAR-3 cells; positive control 300 μM
  inhibition at 300 µM: 87%
Jurkat cells; positive control 1.2 μM
  inhibition at 1.2 µM: 17.4%
Jurkat cells; positive control 3.7 μM
  inhibition at 3.7 µM: 63.9%
Jurkat cells; positive control 11.1 μM
  inhibition at 11.1 µM: 84.7%
Jurkat cells; positive control 33.3 μM
  inhibition at 33.3 µM: 105%
Jurkat cells; positive control 100 μM
  inhibition at 100 µM: 106%
Jurkat cells; positive control 300 μM
  inhibition at 300 µM: 104%
HCT116 cells; HCT-116, positive control 1.2 μM
  inhibition at 1.2 µM: 50.1%
HCT116 cells; HCT-116, positive control 3.7 μM
  inhibition at 3.7 µM: 79.3%
HCT116 cells; HCT-116, positive control 11.1 μM
  inhibition at 11.1 µM: 85.6%
HCT116 cells; HCT-116, positive control 33.3 μM
  inhibition at 33.3 µM: 85.6%
HCT116 cells; HCT-116, positive control 100 μM
  inhibition at 100 µM: 85.4%
HCT116 cells; HCT-116, positive control 300 μM
  inhibition at 300 µM: 87.6%

## C[C@]12CC[C@H]3[C@@H](CCC4=CC(=O)CC[C@@]43C)[C@@H]1CC[C@@H]2O [Testosterone]
[1]; 1 μM compound, 0.4 mg/mL protein, NADPH regenerating system, 60 minutes
  % remaining after incubation, Human Microsomes: 42%
[2]; 1 μM compound, 0.2 mg/mL protein, NADPH regenerating system, 60 minutes
  % remaining after incubation, Rat Microsomes: 0.6%

## O=C1NC(=O)/C(=C/c2ccnc(N3CCC(c4nc(-c5ccncc5)no4)CC3)n2)S1 [compound 86]
[4]
  IC50: 0.086 µM

## O=C1NC(=O)/C(=C/c2ccnc(N3CCC(c4c[nH]c5ccccc45)CC3)n2)S1 [compound 94]
[4]
  IC50: 0.038 µM

## Nc1cccc2c1CCN(c1nccc(/C=C3\SC(=O)NC3=O)n1)C2 [compound 120]
[5]
  IC50: 0.17 µM
[6]
  IC50: 0.225 µM
[4]
  IC50: 0.676 µM
[7]
  IC50: 0.214 µM
[8]
  IC50: 0.271 µM

## COc1cccc2ccc(CNCC3CCN(c4nccc(/C=C5\SC(=O)NC5=O)n4)CC3)nc12 [compound 189]
[5]
  IC50: 0.004 µM
[6]
  IC50: 0.009 µM
[4]
  IC50: 0.164 µM
[7]
  IC50: 0.364 µM
[8]
  IC50: 0.004 µM

## CN(C)CCOc1cc(/C=C2\SC(=O)NC2=O)nc(N2CCN(S(=O)(=O)c3ccccc3)CC2)n1 [compound 214, (Z)-5-((6-(2-(dimethylamino)ethoxy)-2-(4-(phenylsulfonyl)piperazin-1-yl)pyrimidin-4-yl)methylene)thiazolidine-2,4-dione]
[9]
  Percent Activity of Enzyme, CK1γ2(h): 41%
[10]; CK1(y)
  Percent Activity of Enzyme, CK1(y): 79%
[10]; CK2(h)
  Percent Activity of Enzyme, CK2(h): 77%
[10]; Pim-1(h)
  Percent Activity of Enzyme, Pim-1(h): 25%
[10]; Pim-2(h)
  Percent Activity of Enzyme, Pim-2(h): 13%
[10]; Pim-3(h)
  Percent Activity of Enzyme, Pim-3(h): 16%
[11]; Pim-1(h), read-out: IC50 of Compound, Pim-1(h)
  IC50: 0.095 µM
[11]; Pim-2(h), read-out: IC50 of Compound, Pim-2(h)
  IC50: 0.035 µM
[11]; Pim-3(h), read-out: IC50 of Compound, Pim-3(h)
  IC50: 0.06 µM
